Assay results taken from patent publication USRE38257E1, “Piperdine derivatives and hypotensives containing the same” (Ajinomoto Co., Inc., priority 1988, dated 2003).

Tested on: male spontaneously hypertensive rats
Test: Decrease in systolic blood pressure in spontaneously hypertensive rats after intravenous bolus injection, indirect (tail-cuff) method
Type: in vivo, rat
Settings: for Decrease in systolic blood pressure (mmHg) time after administration (hour) 0.5: 0.5 hour after administration; for Decrease in systolic blood pressure (mmHg) time after administration (hour) 4: 4 hours after administration
Protocol: As test animals, four male spontaneously hypertensive rats (weight 400 to 440 g) that were sufficiently adapted for feeding and in which hypertension was confirmed were used.
Physiological saline aqueous solution containing 2.5% Nicolle and 2.5% ethanol of sample was intravenously administered by bolus injection at a dose of 1 ml per 1 kg of body weight. Systolic blood pressure after administration was measured by the indirect (tail-cuff) method.

COc1cccc(C=CCN2CCC(=C3c4ccccc4C=Cc4ccccc43)CC2)c1.Cl [Example 348, 4-(5H-Dibenzo[a,d]cyclohepten-5-ylidene)-1-(3-methoxycinnamyl)piperidine hydrochloride]
Decrease in systolic blood pressure (mmHg) time after administration (hour) 0.5 (dose 3 mg/kg i.v. bolus): −105 mmHg | Decrease in systolic blood pressure (mmHg) time after administration (hour) 4 (dose 3 mg/kg i.v. bolus): −12 mmHg

C1=Cc2ccccc2C(=C2CCNCC2)c2ccccc21.Cl [Example 349, 4-(5H-Dibenzo[a,d]cyclohepten-5-ylidene)-1-piperidine hydrochloride]
Decrease in systolic blood pressure (mmHg) time after administration (hour) 0.5 (dose 1 mg/kg i.v. bolus): −48 mmHg | Decrease in systolic blood pressure (mmHg) time after administration (hour) 4 (dose 1 mg/kg i.v. bolus): −43 mmHg

Cl.O=[N+]([O-])c1ccc(C=CCN2CCC(=C3c4ccccc4CCc4ccccc43)CC2)cc1 [Example 350, 4-(10,11-Dihydro-5H-dibenzo[a,d]cyclohepten-5-ylidene)-1-(4-nitrocinnamyl)piperidine hydrochloride]
Decrease in systolic blood pressure (mmHg) time after administration (hour) 0.5 (dose 10 mg/kg i.v. bolus): −136 mmHg | Decrease in systolic blood pressure (mmHg) time after administration (hour) 4 (dose 10 mg/kg i.v. bolus): −85 mmHg

Cl.Cl.Nc1ccc(C=CCN2CCC(=C3c4ccccc4CCc4ccccc43)CC2)cc1 [Example 351, 1-(4-Aminocinnamyl)-4-(10,11-dihydro-5H-Dibenzo[a,d]cyclohepten-5-ylidene)-1-piperidine dihydrochloride]
Decrease in systolic blood pressure (mmHg) time after administration (hour) 0.5 (dose 3 mg/kg i.v. bolus): −70 mmHg | Decrease in systolic blood pressure (mmHg) time after administration (hour) 4 (dose 3 mg/kg i.v. bolus): −21 mmHg

CC(=O)Nc1ccc(C=CCN2CCC(=C3c4ccccc4CCc4ccccc43)CC2)cc1.Cl.Cl [Example 352, 1-(4-Acetylaminocinnamyl)-4-(10,11 dihydro-5H-Dibenzo[a,d]cyclohepten-5-ylidene)piperidine dihydrochloride]
Decrease in systolic blood pressure (mmHg) time after administration (hour) 0.5 (dose 3 mg/kg i.v. bolus): −93 mmHg | Decrease in systolic blood pressure (mmHg) time after administration (hour) 4 (dose 3 mg/kg i.v. bolus): −60 mmHg

Cl.Fc1ccc(C=CCN2CCC(=C3c4ccccc4C=Cc4ccccc43)CC2)cc1 [Example 353]
Decrease in systolic blood pressure (mmHg) time after administration (hour) 0.5 (dose 10 mg/kg i.v. bolus): −147 mmHg | Decrease in systolic blood pressure (mmHg) time after administration (hour) 4 (dose 10 mg/kg i.v. bolus): −138 mmHg

Cl.O=[N+]([O-])c1cccc2c1CC(CCN1CCC(=C3c4ccccc4C=Cc4ccccc43)CC1)C2 (centres unmarked) [Example 354, 2-(2-(4-(5H-Dibenzo[a,d]cyclohepten-5-ylidene)-1-piperidinyl)-1-ethyl)-4′-nitroindan hydrochloride]
Decrease in systolic blood pressure (mmHg) time after administration (hour) 0.5 (dose 3 mg/kg i.v. bolus): −89 mmHg | Decrease in systolic blood pressure (mmHg) time after administration (hour) 4 (dose 3 mg/kg i.v. bolus): −8 mmHg

Cl.Oc1ccc(C=CCN2CCC(=C3c4ccccc4C=Cc4ccccc43)CC2)cc1 [Example 363, 4-(5H-Dibenzo[a,d]cyclohepten-5-ylidene)-1-(4-hydroxycinnamyl)piperidine hydrochloride]
Decrease in systolic blood pressure (mmHg) time after administration (hour) 0.5 (dose 3 mg/kg i.v. bolus): −120 mmHg

CC(=O)Oc1ccc(C=CCN2CCC(=C3c4ccccc4C=Cc4ccccc43)CC2)cc1.Cl [Example 364, 1-(4-Acetoxycinnamyl)-4-(5H-Dibenzo[a,d]cyclohepten-5-ylidene)piperidine hydrochloride]
Decrease in systolic blood pressure (mmHg) time after administration (hour) 0.5 (dose 1 mg/kg i.v. bolus): −113 mmHg

COc1cc(C=CCN2CCC(=C3c4ccccc4C=Cc4ccccc43)CC2)ccc1O.Cl [Example 365, 4-(5H-Dibenzo[a,d]cyclohepten-5-ylidene)-1-(4-hydroxy-3-methoxycinnamyl)piperidine hydrochloridine]
Decrease in systolic blood pressure (mmHg) time after administration (hour) 0.5 (dose 3 mg/kg i.v. bolus): −80 mmHg | Decrease in systolic blood pressure (mmHg) time after administration (hour) 4 (dose 3 mg/kg i.v. bolus): −56 mmHg

COc1cc(C=CCN2CCC(=C3c4ccccc4C=Cc4ccccc43)CC2)ccc1OC(C)=O.Cl [Example 366, 1-(4-Acetoxy-3-methoxycinnamyl)-4-(5H-Dibenzo[a,d]cyclohepten-5-ylidene)-1-piperidine hydrochloride]
Decrease in systolic blood pressure (mmHg) time after administration (hour) 0.5 (dose 3 mg/kg i.v. bolus): −152 mmHg | Decrease in systolic blood pressure (mmHg) time after administration (hour) 4 (dose 3 mg/kg i.v. bolus): −113 mmHg
